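Dose response: 5 concentrations. Exposure: 48 h. Format: 96-well plates. Endpoint: linear interpolation; highest concentration if not reached. Abbreviation: GI50, concentration required for 50% inhibition of growth. Definition used: TGI = concentration required for complete inhibition of growth.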
Experiments:
Test in all cases: NCI-60 cell line screen, 48 h
[1] = system: HCT-116 colon
[2] = system: OVCAR-5 ovarian
[3] = system: NCI-H460 lung
[4] = system: M14 melanoma
[5] = system: UACC-62 melanoma
[6] = system: MOLT-4 leukemia
[7] = system: UO-31 renal
[8] = system: RXF 393 renal
[9] = system: A498 renal
[10] = system: PC-3 prostate

Row | Structure (SMILES) | TGI [1] [µM] | TGI [2] [µM] | TGI [3] [µM] | TGI [4] [µM] | TGI [5] [µM] | TGI [6] [µM] | TGI [7] [µM] | TGI [8] [µM] | TGI [9] [µM] | GI50 [9] [µM] | GI50 [1] [µM] | GI50 [2] [µM] | GI50 [3] [µM] | GI50 [4] [µM] | GI50 [5] [µM] | GI50 [6] [µM] | GI50 [10] [µM] | TGI [10] [µM] | GI50 [7] [µM] | GI50 [8] [µM]
1 | Clc1ccc(CCn2cncn2)c(Cl)c1 | > 100 | > 100 | > 100 | > 100 | > 100 | > 100 | > 100 | – | – | – | – | – | – | – | – | – | – | – | – | –
2 | Cn1c(-c2ccccc2)c/c(=N\NS(C)(=O)=O)c2cc(S(=O)(=O)O)ccc21 | > 100 | > 100 | > 100 | > 100 | > 100 | > 100 | > 100 | > 100 | – | – | – | – | – | – | – | – | – | – | – | –
3 | N#Cc1ccccc1/C=N/O | > 61.6 | > 100 | > 100 | > 100 | > 100 | > 100 | > 100 | > 100 | > 100 | – | – | – | – | – | – | – | – | – | – | –
4 | COC(=O)/C(Br)=C/c1c[nH]c2ccc(Br)cc12 | 27.4 | 31.3 | 36.9 | 25.8 | 26.7 | > 100 | 30.1 | – | 20.9 | 7.98 | 12.5 | 13.6 | 17.6 | 11.4 | 12.4 | 10.6 | 11.2 | 27.8 | 6.36 | –
5 | Clc1cccc(Cc2cn3cc(-c4ccccc4)nc3s2)c1 | > 100 | > 100 | > 100 | > 100 | 1.97 | > 100 | > 100 | 40.4 | – | – | 9.36 | 66.8 | 3.31 | 0.84 | 0.323 | > 100 | 14.4 | > 100 | 7.47 | 15.1
6 | O=c1[nH]c(C2CCCCC2)nc2cc(Cl)ccc12 | > 100 | > 100 | – | – | > 100 | > 100 | > 100 | > 100 | – | – | – | – | – | – | – | – | – | – | – | –
7 | FC(F)(F)c1ccccc1C=NC12CC3CC(CC(C3)C1)C2 | > 100 | > 100 | > 100 | > 100 | – | > 100 | 12.1 | > 100 | > 100 | – | – | – | – | – | – | – | – | – | – | –
8 | Cc1ccc(S(=O)(=O)NC(=O)Nc2nc(Cl)cc(Cl)n2)cc1 | > 100 | > 100 | > 100 | > 100 | > 100 | > 100 | > 100 | > 100 | > 100 | – | – | – | – | – | – | – | – | – | – | –
9 | O=C(Cc1nc2ccccc2s1)NC12CC3CC(CC(C3)C1)C2 | > 100 | – | > 100 | > 100 | > 100 | > 100 | > 100 | – | > 100 | – | – | – | – | – | – | – | – | – | – | –
10 | [O-][N+]1=C(c2ccccc2)COc2ccccc21 | > 100 | > 100 | > 100 | > 100 | > 100 | > 100 | > 100 | > 100 | > 100 | – | – | – | – | – | – | – | – | – | – | –
11 | COc1cc([C@@H]2c3cc4c(cc3[C@@H](NC(=O)c3ccc([N+](=O)[O-])cc3)C3COC(=O)[C@@H]32)OCO4)cc(OC)c1O (stereo not given in full) | 5.32 | 76.2 | 2.38 | > 100 | 2.04 | 1.31 | 10.4 | 34.8 | 3.9 | – | – | – | – | – | – | – | – | – | – | –
12 | CCC1=C[C@H]2CN(CCc3c([nH]c4ccccc34)[C@@](C(=O)OC)(c3cc4c(cc3OC)N(C)[C@H]3[C@@](O)(C(=O)OC)[C@H](OC(C)=O)[C@]5(CC)[C@@H]6C[C@@H]6CN6CC[C@]43[C@@H]65)C2)C1 | 2.61 | 13.1 | 2.65 | 0.156 | 5.12 | > 25 | 5.02 | – | 0.183 | 0.035 | 0.0185 | 0.126 | 0.0383 | 0.0264 | 0.0211 | 0.0737 | 0.0178 | 4.24 | 0.175 | –
13 | Cc1ccccc1C(C#N)/C(=N/NC(=O)C(=O)NN)C(=O)Nc1cccc(C(F)(F)F)c1 (stereo not given) | > 100 | > 100 | > 100 | > 100 | > 100 | > 100 | > 100 | – | > 100 | – | – | – | – | – | – | – | – | – | – | –
14 | O=C(Nc1ccc(Cl)cc1Cl)/C(Cl)=C1/Sc2ccccc2NC1=O | 66.4 | > 100 | > 100 | > 100 | > 100 | 87 | 77.2 | 75.8 | > 100 | – | – | – | – | – | – | – | – | – | – | –
15 | C=C1CCC2C(C)(CO)C(O)CCC2(C)C1CC(O)C1=CCOC1=O (stereo not given) | 73.3 | > 100 | > 100 | > 100 | > 100 | > 100 | > 100 | – | > 100 | – | – | – | – | – | – | – | – | – | – | –
16 | COC(=O)CCC(=O)C(C#N)c1ccc(Cl)cc1Cl (stereo not given) | > 100 | – | – | > 100 | > 100 | > 100 | > 100 | – | – | – | – | – | – | – | – | – | – | – | – | –
17 | C[C@H]1[C@H](C)CC[C@]2(C(=O)O)CC[C@]3(C)C(=CC[C@@H]4[C@@]5(C)CC[C@H](OC(=O)/C=C\c6ccc(O)cc6)C(C)(C)[C@@H]5CC[C@]43C)[C@H]12 | 3.98 | 27 | 10.9 | – | 22.8 | 19.7 | > 100 | 6.94 | 29.2 | 15 | 1.53 | 12.3 | 2.23 | – | 10.9 | 4.56 | – | – | 13.6 | 1.52
18 | CCOCC[P+](c1ccccc1)(c1ccccc1)c1ccccc1 | > 100 | > 100 | > 100 | > 100 | – | > 100 | > 100 | – | 64.2 | 17.6 | 14.7 | 25.9 | 25.7 | 26.5 | – | 31.4 | 10.8 | 72.9 | 34.8 | –
19 | Cc1cc(Cl)ccc1Nc1nc(C(F)(F)F)ccc1C(=O)N/N=C/c1ccc(F)cc1 | 11.1 | 15.1 | 6.04 | 9.64 | 3.82 | 4.98 | 5.35 | – | 5.92 | 1.48 | 1.4 | 2.45 | 1.95 | 1.84 | 1.79 | 1.6 | 1.85 | 8.64 | 1.71 | –
20 | C/C(CC(=O)Nc1ccc([N+](=O)[O-])cc1)=N/N=C(N)N | > 100 | > 100 | > 100 | > 100 | > 100 | > 100 | > 100 | > 100 | – | – | – | – | – | – | – | – | – | – | – | –
21 | Cc1cc2c(=O)cc(-c3ccc(C(=O)O)cc3)oc2c(C(=O)O)c1C | > 100 | > 100 | > 100 | > 100 | > 100 | > 100 | > 100 | – | – | – | – | – | – | – | – | – | – | – | – | –
22 | COc1ccc(OC)c2c3c(ncc12)-c1cc2c(cc1C3)OCO2 | > 100 | > 100 | > 100 | > 100 | > 100 | – | > 100 | > 100 | – | – | 0.249 | > 100 | 5.6 | 0.316 | > 100 | – | > 100 | > 100 | > 100 | > 100
23 | O=C(CCc1cc(-c2ccco2)n(-c2ccc([N+](=O)[O-])cc2[N+](=O)[O-])n1)Nc1ccccc1 | > 100 | > 100 | > 100 | > 100 | > 100 | > 100 | > 100 | > 100 | > 100 | – | – | – | – | – | – | – | – | – | – | –
24 | O=[N+]([O-])c1ccc(C2N3CCCCC3[C@@H]3c4[nH]c5ccccc5c4CCN23)cc1 (stereo not given in full) | 19.7 | 56.5 | 40.9 | 38.9 | 18.6 | 49.6 | 81.8 | 18.9 | 36.5 | – | – | – | – | – | – | – | – | – | – | –
25 | NC(CCCNCc1ccccc1O)C(=O)O (stereo not given) | > 100 | > 100 | > 100 | > 100 | > 100 | > 100 | > 100 | – | > 100 | – | – | – | – | – | – | – | – | – | – | –
26 | COC(=O)c1cc(O)ccc1NC(=O)c1ccc(O)cc1 | > 100 | > 100 | > 100 | > 100 | > 100 | > 100 | > 100 | – | – | – | – | – | – | – | – | – | – | – | – | –
27 | C/C(CN1C(=O)c2ccccc2C1=O)=N\NS(C)(=O)=O | > 100 | > 100 | > 100 | > 100 | > 100 | > 100 | > 100 | > 100 | > 100 | – | – | – | – | – | – | – | – | – | – | –
28 | COc1ccc2oc(-c3ccc(Cl)cc3)c(N3CCN(C)CC3)c2c1 | 4.59 | 4.34 | 4.16 | 4.26 | 3.44 | 6.95 | 2.71 | – | 3.15 | 1.53 | 1.98 | 1.95 | 1.94 | 1.95 | 1.73 | 2.28 | 1.69 | 5.54 | 1.05 | –
29 | N=C(N)c1ccc(-c2ccc(-c3ccco3)o2)cc1F | 3.49 | 10.3 | 4.17 | 3.76 | – | 5.22 | 3.14 | 3.69 | 4.83 | 1.36 | 1.69 | 2.7 | 1.98 | 1.88 | – | 2.27 | – | – | 1.43 | 1.62
30 | O=C(/C=C/c1ccc2c(c1)OCO2)c1ccccc(=O)c1O | > 100 | – | 41.7 | – | 29.2 | > 100 | > 100 | – | > 100 | – | – | – | – | – | – | – | – | > 100 | – | –

Reference: PubChem BioAssay (NCI)
